In the supplement of paper PMC12317010:
Counter-ions that a name gives are not always drawn.

Assay: collision cross section in nitrogen (drift tube, single-field); higher = larger gas-phase ion size
[1] = ion type: [M+Na], ion source: ESI, ion mode: Positive
[2] = ion type: [M+H], ion source: APCI, ion mode: Positive
[3] = ion type: [M-H], ion source: ESI, ion mode: Negative
[4] = ion type: [M+H], ion source: ESI, ion mode: Positive
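Also: chemical standards at 10 µM analysed by drift tube IMS-QTOF MS in about 3.95 torr nitrogen, mean of duplicate injections differing ≤1%, mass error below 10 ppm.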

Compound	collision cross section in nitrogen [1]	collision cross section in nitrogen [2]	collision cross section in nitrogen [3]	collision cross section in nitrogen [4]	collision cross section in nitrogen (ion type: [M+], ion source: APCI, ion mode: Positive)
CCOC(=O)C(C#N)=C(c1ccccc1)c1ccccc1 [Ethyl 2-cyano-3,3-diphenylacrylate]	180.6 Å²				
CCCCN(CCC(=O)OCC)C(C)=O [Ethyl 3-(N-butylacetamido)propionate]	162 Å²	149.3 Å²			
CCOC(=O)c1cccc(O)c1 [Ethyl 3-hydroxybenzoate]			137.7 Å²		
CCOC(=O)C1=NOC(c2ccccc2)(c2ccccc2)C1 [Ethyl 5,5-diphenyl-2-isoxazoline-3-carboxylate]	187.8 Å²			169.5 Å²	
CCOC(=O)C1=NN(c2ccccc2)C(=O)C1 [Ethyl 5-oxo-1-phenyl-4,5-dihydro-1H-pyrazole-3-carboxylate]	164.9 Å²	154.1 Å²	155.5 Å²	154.5 Å²	
CCOC(=O)NCCC[Si](OCC)(OCC)OCC [Ethyl [3-(triethoxysilyl)propyl]carbamate]	171.4 Å²				
CCOC(=O)CC(=O)c1ccccc1 [Ethyl benzoylacetate]	155.9 Å²				
CCCCCCCCCC(=O)OCC [Ethyl decanoate]			154.6 Å²		
CCN(CCO)CCO [Ethyl diethanolamine]		125.6 Å²		125.8 Å²	
CCCCCCCCCCCC(=O)OCC [Ethyl dodecanoate]			162.3 Å²		
CCCCCCCCCCCCCCCC(=O)OCC [Ethyl hexadecanoate]			177.9 Å²		
CCCCCCCC(=O)OCC [Ethyl octanoate]			149.5 Å²		
CCCCCCCCCCCCCC(=O)OCC [Ethyl tetradecanoate]			169.8 Å²		
CS(=O)(=O)OCCOS(C)(=O)=O [Ethylene dimethanesulfonate]	144.8 Å²				
C(COCC1CO1)OCC1CO1 (centres undefined) [Ethylene glycol diglycidyl ether]	135.8 Å²				
O=C(OCCOCCOCCOC(=O)c1ccccc1)c1ccccc1 [Ethylenebis(oxyethylene) dibenzoate]	189.7 Å²				
CCOC(=O)c1ccc(O)cc1 [Ethylparaben]			136.7 Å²		
CCC(C(=O)NC(N)=O)c1ccccc1 (centres undefined) [Ethylphenylacetylurea]			151 Å²		
CCOc1ccc(C(C)(C)COCc2cccc(Oc3ccccc3)c2)cc1 [Etofenprox]	191 Å²				
COc1cc([C@@H]2c3cc4c(cc3[C@@H](O[C@@H]3O[C@@H]5CO[C@@H](C)O[C@H]5[C@H](O)[C@H]3O)[C@H]3COC(=O)[C@H]23)OCO4)cc(OC)c1O [Etoposide]	249.8 Å²		239.5 Å²		

Compound	collision cross section in nitrogen [1]	collision cross section in nitrogen [2]	collision cross section in nitrogen [3]	collision cross section in nitrogen [4]	collision cross section in nitrogen (ion type: [M+], ion source: APCI, ion mode: Positive)
CCOc1cc(C(C)(C)C)ccc1C1COC(c2c(F)cccc2F)=N1 (centres undefined) [Etoxazole]	196 Å²	186.3 Å²		186.5 Å²	186.5 Å²
C=CCc1ccc(OC(=O)Cc2ccccc2)c(OC)c1 [Eugenyl phenylacetate]	175.7 Å²				
CCN(Cc1cccc(S(=O)(=O)O)c1)c1ccc(C(=C2C=CC(=[N+](CC)Cc3cccc(S(=O)(=O)O)c3)C=C2)c2ccccc2S(=O)(=O)[O-])cc1 [FD&C Blue No. 1]			257.6 Å²	253.6 Å²	
CCN(Cc1cccc(S(=O)(=O)O)c1)c1ccc(C(=C2C=CC(=[N+](CC)Cc3cccc(S(=O)(=O)[O-])c3)C=C2)c2ccccc2)cc1 [FD&C Green No. 1]	261.8 Å²		261.9 Å²	254.3 Å²	
CCN(Cc1cccc(S(=O)(=O)O)c1)c1ccc(C(=C2C=CC(=[N+](CC)Cc3cccc(S(=O)(=O)O)c3)C=C2)c2ccc(O)cc2S(=O)(=O)[O-])cc1 [FD&C Green No. 3]	260.8 Å²		260.3 Å²	259 Å²	
O=C1OC2(c3ccccc31)c1cc(I)c(O)c(I)c1Oc1c2cc(I)c(O)c1I [FD&C Red 3]		211.7 Å²	217.9 Å²	211.4 Å²	
Cc1cc(C)c(S(=O)(=O)O)cc1N=Nc1cc(S(=O)(=O)O)c2ccccc2c1O [FD&C Red 4]			208.6 Å²		
O=S(=O)(O)c1ccc(N=Nc2c(O)ccc3cc(S(=O)(=O)O)ccc23)cc1 [FD&C Yellow 6]			203.1 Å²		
Cc1[nH]cnc1C[C@H]1CCc2c(C)c3ccccc3n2C1=O [Fabesetron hydrochloride]		175.1 Å²		174.8 Å²	
N#Cc1ccc(C2CCCc3cncn32)cc1 (centres undefined) [Fadrozole]				157.3 Å²	
NC(N)=Nc1nc(CSCCC(N)=NS(N)(=O)=O)cs1 [Famotidine]	174.3 Å²	168.7 Å²	169.4 Å²	168.9 Å²	
CC1(c2ccc(Oc3ccccc3)cc2)OC(=O)N(Nc2ccccc2)C1=O (centres undefined) [Famoxadone]	210.6 Å²		195.7 Å²		
COP(=S)(OC)Oc1ccc(S(=O)(=O)N(C)C)cc1 [Famphur]	173.8 Å²	174 Å²			
CCc1cc(C2=C(C(=O)O)N(c3ccccc3C(F)(F)F)S(=O)(=O)c3ccccc32)cc2c1OCO2 [Fandosentan potassium salt]	216.3 Å²		204.7 Å²		
Cc1oc(-c2ccccc2)nc1CCOc1ccc(C[C@H](Nc2ccccc2C(=O)c2ccccc2)C(=O)O)cc1 [Farglitazar]	224.1 Å²	217.4 Å²	228.5 Å²	217.1 Å²	
Cc1nc(-c2ccc(OCC(C)C)c(C#N)c2)sc1C(=O)O [Febuxostat]				183.6 Å²	
NC(=O)OCC(COC(N)=O)c1ccccc1 [Felbamate]	159.6 Å²				
CSC1=N[C@@](C)(c2ccccc2)C(=O)N1Nc1ccccc1 [Fenamidone]		172.6 Å²	174.6 Å²	172.7 Å²	
CCOP(=O)(NC(C)C)Oc1ccc(S(C)(=O)=O)c(C)c1 (centres undefined) [Fenamiphos sulfone]	181.5 Å²	182.4 Å²	176.7 Å²	180.3 Å²	
CCOP(=O)(NC(C)C)Oc1ccc(SC)c(C)c1 (centres undefined) [Fenamiphos]	178.1 Å²	172.5 Å²	172.2 Å²	171.3 Å²	

Compound	collision cross section in nitrogen [1]	collision cross section in nitrogen [2]	collision cross section in nitrogen [3]	collision cross section in nitrogen [4]	collision cross section in nitrogen (ion type: [M+], ion source: APCI, ion mode: Positive)
COC(=O)Nc1nc2cc(Sc3ccccc3)ccc2[nH]1 [Fenbendazole]		175 Å²	174.9 Å²	174.6 Å²	
CC1(C(=O)Nc2ccc(O)c(Cl)c2Cl)CCCCC1 [Fenhexamid]		166.7 Å²	172.6 Å²	166.4 Å²	
CC(C)OC(=O)C(C)(C)Oc1ccc(C(=O)c2ccc(Cl)cc2)cc1 [Fenofibrate]	198.4 Å²			192.8 Å²	
CCOC(=O)[C@H](C)Oc1ccc(Oc2nc3ccc(Cl)cc3o2)cc1 [Fenoxaprop-(2S)-ethyl]	189 Å²			189.8 Å²	
CCOC(=O)[C@@H](C)Oc1ccc(Oc2nc3ccc(Cl)cc3o2)cc1 [Fenoxaprop-P-ethyl]	189 Å²	189.9 Å²		189.5 Å²	
CCOC(=O)C(C)Oc1ccc(Oc2nc3ccc(Cl)cc3o2)cc1 (centres undefined) [Fenoxaprop-ethyl]	189.1 Å²	190.2 Å²		189.3 Å²	
CCOC(=O)NCCOc1ccc(Oc2ccccc2)cc1 [Fenoxycarb]	184.6 Å²				
CC1(C)C(C(=O)OC(C#N)c2cccc(Oc3ccccc3)c2)C1(C)C (centres undefined) [Fenpropathrin]	186 Å²				
CCOP(=S)(OCC)Oc1ccc(S(C)=O)cc1 (centres undefined) [Fensulfothion]	169.7 Å²			174.5 Å²	
COP(=S)(OC)Oc1ccc(SC)c(C)c1 [Fenthion]	166.3 Å²			161.6 Å²	
CN(C)C(=O)Nc1ccccc1 [Fenuron]	144.7 Å²	134 Å²	137 Å²	134.4 Å²	
CC(C)(C)NC(=O)[C@H]1CC[C@H]2[C@@H]3CC[C@H]4NC(=O)C=C[C@]4(C)[C@H]3CC[C@]12C [Finasteride]	226.8 Å²	204.7 Å²	198.1 Å²	203.3 Å²	
O=C(COc1ccc(Cl)cc1)N1CCN(Cc2ccc3c(c2)OCO3)CC1 [Fipexide hydrochloride]	202.1 Å²	190.4 Å²		190.3 Å²	
N#Cc1nn(-c2c(Cl)cc(C(F)(F)F)cc2Cl)c(N)c1S(=O)C(F)(F)F (centres undefined) [Fipronil]			178.1 Å²		
CC(C)OC(=O)C(C)N(C(=O)c1ccccc1)c1ccc(F)c(Cl)c1 (centres undefined) [Flamprop-isopropyl]	193.4 Å²	182.1 Å²			
O=c1cc(-c2ccccc2)oc2ccccc12 [Flavone]		146.6 Å²		146.5 Å²	
COc1ncc(F)c2nc(S(=O)(=O)Nc3c(F)cccc3F)nn12 [Florasulam]	181.7 Å²	172.3 Å²	174.5 Å²	172.1 Å²	
CCCCOC(=O)C(C)Oc1ccc(Oc2ccc(C(F)(F)F)cn2)cc1 (centres undefined) [Fluazifop-butyl]	194.4 Å²	195.5 Å²	188.7 Å²	195.1 Å²	
O=[N+]([O-])c1cc(C(F)(F)F)c(Cl)c([N+](=O)[O-])c1Nc1ncc(C(F)(F)F)cc1Cl [Fluazinam]			182.2 Å²		
Cc1cc(C(F)(C(F)(F)F)C(F)(F)F)ccc1NC(=O)c1cccc(I)c1C(=O)NC(C)(C)CS(C)(=O)=O [Flubendiamide]	222.6 Å²		222.1 Å²		
